In patent US5428051A, “Methods of combating pneumocystis carinii pneumonia and compounds useful therefor” (priority 1992, dated 1995):
Read-outs that look alike come from different tables or passages of the source.

How the values were obtained:
Pneumocystis carinii [1] = assay: Treatment of Pneumocystis carinii pneumonia in rats: histologic scoring of lung cysts (GMS stain); type: in vivo, Sprague-Dawley rats; parameters: key to Mean Histologic Score: lung cyst score: 0.5 = <10 cysts, 4 = >50% of lung tissue involved; conditions: daily i.v., 14 days; for No. of animals with histologic score 0.5: 0.5 = less than 10 cysts per two sections; for No. of animals with histologic score 1: 1 = <10% of lung tissue involved; for No. of animals with histologic score 2: 2 = 10 to 25% of lung tissue involved; for No. of animals with histologic score 3: 3 = 26 to 50% of lung tissue involved; for No. of animals with histologic score 4: 4 = >50% of lung tissue involved; for Mean Histologic Score: score scale 0.5-4
Method: (§1) Induction and Treatment of Pneumocystis carinii in Sprague-Dawley Rats
(§2) Male Sprague-Dawley rats, barrier raised, non-certified virus free, weighing 150-200 g were obtained from Hilltop Laboratories and housed individually. Animals were begun on a low (8%) protein diet (ICN Biomedicals, Cincinnati, Ohio) and drinking water containing tetracycline (0.5 mg/ml) and dexamethasone (1.0 μg/ml). This treatment was given for the next 8 weeks, monitoring fluid intake daily and weighing animals weekly. Dilutions of the drinking solution were made when animals consumed too much fluid so as to prevent cortisone poisoning. At the beginning of the sixth week animals were divided into groups of eight or more animals each and the test compounds were administered daily by i.v. injection into the tail vein at the indicated dose for the next 14 days or orally by gavage for the next 14 days.
All animals were sacrificed at the end of the eighth week by chloroform inhalation and the right lung was inflated in situ with 10% formalin and fixed for histologic examination. The fixed lung tissue was sectioned longitudinally and stained with Grocott's methenamine silver (GMS) stain which selectively stains the walls of th P. carinii cysts. Stained sections were coded and each section was scored by 2 examiners using a blinded protocol. Sections were read and scored according to modification of known procedures (P. Walzer et al., Antimicrob. Agents. Chemother. 32: 896-905 (1988)) as follows: 0.5=less than 10 cysts counted per two fully examinec sections; 1=scattered cysts with <10% of lung tissue involved; 2=scattered cysts with limited intense focal involvement and 10 to 25% of lung tissue involved; 3=scattered cysts with numerous intense areas of focal involvement and 26 to 50% of lung tissue involved; 4=cysts found throughout the tissue with numerous very intense focal areas of involvement having >50% of lung tissue involved.
The Chi square goodness of fit was used to calculate the p values of each test group when compared to the saline-treated and pentamidine-treated groups. The statistical analysis was carried out using the StatView 512+ software package (Brainpower, Inc., Calabasas, Calif.) on a Macintosh II computer.

Pneumocystis carinii [2] = assay: Treatment of Pneumocystis carinii pneumonia in rats: cyst count in lung homogenate (cresyl violet); type: in vivo, Sprague-Dawley rats; conditions: for response vs control in vivo at 5 mg/kg / response vs control in vivo at 10 mg/kg: Pneumocystis carinii, iv, 336 h, read-out: Cysts/g Lung (% of Control)
Method: as §1, §2
The left lung was weighed, ground through a #60 wire mesh, and suspended 1:10 (w/v) in Hank's balanced salts solution without cations (HBSS-) and 10 mM β-mercaptoethanol (β-Me). Slides were prepared by spotting 5 μl of lung homogenate diluted 1:10 in HBSS- with β-Me and allowed to air dry. The slides were stained with cresyl violet and the cysts were counted using a blinded protocol. The number of cysts/g of original lung tissue was calculated and the groups were reported as the percent of saline-treated controls.

[3] = patients, intramuscular and intravenous routes; cited from earlier work
[4] = Toxicity of the test compounds in rats (graded by local, clinical and histologic criteria); type: in vivo, Sprague-Dawley rats; conditions: for Toxicity: 10.0 mg/kg, daily i.v., 14 days
Method: as §2

Giardia lamblia = assay: In vitro activity against Giardia lamblia ([3H]-thymidine incorporation); type: cell-based, strain WB (ATCC #30957); conditions: 42 hours, 37° C., read-out: IC50 ± S.D. In Vitro Antigiaridal Activity
Method: In vitro Biological Activity of Bis-Benzimidazoles Against Giardia lamblia
In brief, Giardia lamblia, strain WB (ATCC #30957) was grown to early log phase in filter sterilized Keister's medium with 10% heat-inactivated fetal bovine serum and 50 μg/ml ampicillin and 50 μg/ml gentamicin sulfate. Assay medium was modified Keister's medium plus 5% heat-inactivated fetal bovine serum. The assay procedure was carried out in accordance with the following steps:
(1) (0 hours) Serial dilutions of diamidines suspended in assay medium were prepared in duplicate rows of a 96-well microtiter plate and 2.5×10^4 trophozoites were added to each well. Plates were placed in an anaerobic chamber, gassed with nitrogen, and incubated at 37° C.
(2) (24 hours) Added [methyl-^3 H]-thmidine (1-10 Ci/mmol) to yield 1.5-2 μCi/well.
(3) (42 hours) Harvested cells with multimash-type cell harvester onto glass microfiber paper. Washed and dried filters were counted using a scintillation counter to determine the incorporation of [^3 H]-thymidine.
(4) Data on uptake of [^3 H]-thymidine were fitted to a logistic-logarithmic concentration response function by a non-linear regression method and drug concentrations required to inhibit 50% incorporation of [^3 H]-thymidine were determined.

Pneumocystis carinii [5] = assay: Anti-PCP activity in rats; type: in vivo, Sprague-Dawley rats
[6] = daily i.v., 14 days, vs. saline-treated controls
[7] = 10.0 mg/kg, daily i.v., 14 days, vs. saline-treated controls

Compound	No. of animals with histologic score 0.5 (Pneumocystis carinii [1]; 10.0 mg/kg)	No. of animals with histologic score 1 (Pneumocystis carinii [1]; 10.0 mg/kg)	No. of animals with histologic score 2 (Pneumocystis carinii [1]; 10.0 mg/kg)	No. of animals with histologic score 3 (Pneumocystis carinii [1]; 10.0 mg/kg)	No. of animals with histologic score 4 (Pneumocystis carinii [1]; 10.0 mg/kg)	Mean Histologic Score (Pneumocystis carinii [1]; 10.0 mg/kg)	response vs control in vivo at 10 mg/kg (Pneumocystis carinii [2]; [7])	IC50 (Giardia lamblia; Giardia duodenalis)	also measured
N=C(N)c1ccc2nc(/C=C/c3nc4ccc(C(=N)N)cc4[nH]3)[nH]c2c1 [Compound 10, trans-1,2-bis[5-amidino-2-benzimidazolyl]ethene]									No. of animals with histologic score 0.5 (Pneumocystis carinii [1]; 5.0 mg/kg): 1 animals; No. of animals with histologic score 1 (Pneumocystis carinii [1]; 5.0 mg/kg): 5 animals; No. of animals with histologic score 2 (Pneumocystis carinii [1]; 5.0 mg/kg): 5 animals; No. of animals with histologic score 3 (Pneumocystis carinii [1]; 5.0 mg/kg): 1 animals; No. of animals with histologic score 4 (Pneumocystis carinii [1]; 5.0 mg/kg): 0 animals; Mean Histologic Score (Pneumocystis carinii [1]; 5.0 mg/kg): 1.5; response vs control in vivo at 5 mg/kg (Pneumocystis carinii [2]; [6]): 2.14%
N=C(N)c1ccc(OCCCCCOc2ccc(C(=N)N)cc2)cc1 [pentamidine isethionate]									side effects / fatalities [3]: Some fatalities have been attributed to severe hypotension, hypoglycemia, and cardiac arrhythmias
c1cc2[nH]c(CCCCc3nc4cc(C5=NCCN5)ccc4[nH]3)nc2cc1C1=NCCN1 [Compound 8]	12 animals	0 animals	0 animals	0 animals	0 animals	0.5	0.07%	14.5 ± 3.5 µM	toxicity relative to the parent compound ([4]; vs. pentamidine (parent compound)): significantly less toxic than the parent compound; activity against PCP when administered orally (Pneumocystis carinii [5]; oral, daily dose of 25 mg/kg): exhibited some activity against PCP; potency as an anti-PCP agent relative to pentamidine (Pneumocystis carinii [5]; vs. pentamidine): over four times more potent
N=C(N)c1ccc(OCCCCCOc2ccc(C(=N)N)cc2)cc1 [Pentamidine, reference compound]	12 animals	38 animals	17 animals	4 animals	0 animals				response vs control in vivo at 10 mg/kg (Pneumocystis carinii [2]): 3.13%
N=C(N)c1ccc2nc(CCCc3nc4ccc(C(=N)N)cc4[nH]3)[nH]c2c1 [Compound 5, 1,3-bis[5-amidino-2-benzimidazolyl]propane]	0 animals	1 animals	1 animals	7 animals	3 animals	3.0	64.6%	32.5 ± 6.4 µM	
c1cc2[nH]c(CCCc3nc4cc(C5=NCCN5)ccc4[nH]3)nc2cc1C1=NCCN1 [Compound 6]	1 animals	7 animals	3 animals	1 animals	0 animals	1.4	9.23%	49.5 ± 7.8 µM	
N=C(N)c1ccc2nc(Cc3nc4ccc(C(=N)N)cc4[nH]3)[nH]c2c1 [Compound 1, bis[5-amidino-2-benzimidazolyl]methane]	7 animals	1 animals	0 animals	0 animals	0 animals	0.6		307 ± 28.3 µM	Toxicity [4]: 0
1,4-bis[5-amidino-2-benzimidazolyl]propane [Compound 7]	10 animals	2 animals	0 animals	0 animals	0 animals	0.6			Cysts/g Lung (% of Control) (Pneumocystis carinii [2]; [7]): 1.67 % of Control; Toxicity [4]: 0; IC50 (Giardia lamblia): 8.15 ± 6.9 µM
N=C(N)c1ccc2nc(CCc3nc4ccc(C(=N)N)cc4[nH]3)[nH]c2c1 [Compound 3, 1,2-bis[5-amidino-2-benzimidazolyl]ethane]	7 animals	3 animals	0 animals	0 animals	0 animals	0.7	2.05%	0.33 ± 0.15 µM	
N=C(N)c1ccc2nc(CCCCCCCCc3nc4ccc(C(=N)N)cc4[nH]3)[nH]c2c1 [Compound 9, 1,8-bis[5-amidino-2-benzimidazolyl]octane]								0.04 ± 0.01 µM	No. of animals with histologic score 0.5 (Pneumocystis carinii [1]; 5.0 mg/kg): 1 animals; No. of animals with histologic score 1 (Pneumocystis carinii [1]; 5.0 mg/kg): 0 animals; No. of animals with histologic score 2 (Pneumocystis carinii [1]; 5.0 mg/kg): 8 animals; No. of animals with histologic score 3 (Pneumocystis carinii [1]; 5.0 mg/kg): 3 animals; No. of animals with histologic score 4 (Pneumocystis carinii [1]; 5.0 mg/kg): 0 animals; Mean Histologic Score (Pneumocystis carinii [1]; 5.0 mg/kg): 2.1; response vs control in vivo at 5 mg/kg (Pneumocystis carinii [2]; [6]): 31.8%
